These results are taken from US11459324B2, “O-glycoprotein-2-acetamido-2-deoxy-3-D-glycopyranosidase inhibitors” (BIOGEN MA INC., priority 2018, dated 2022).

Broadly, the IC50 is the concentration at which inhibition is half-maximal.

Some results are limits rather than exact numbers.

For the assay, the target named is T1, Recombinant full length human OGA enzyme (Homo sapiens, UniProt O60502).
T1 construct: Recombinant full length human OGA enzyme was purchased from Origene; purchased Origene
T1 sequence (O60502 1-916): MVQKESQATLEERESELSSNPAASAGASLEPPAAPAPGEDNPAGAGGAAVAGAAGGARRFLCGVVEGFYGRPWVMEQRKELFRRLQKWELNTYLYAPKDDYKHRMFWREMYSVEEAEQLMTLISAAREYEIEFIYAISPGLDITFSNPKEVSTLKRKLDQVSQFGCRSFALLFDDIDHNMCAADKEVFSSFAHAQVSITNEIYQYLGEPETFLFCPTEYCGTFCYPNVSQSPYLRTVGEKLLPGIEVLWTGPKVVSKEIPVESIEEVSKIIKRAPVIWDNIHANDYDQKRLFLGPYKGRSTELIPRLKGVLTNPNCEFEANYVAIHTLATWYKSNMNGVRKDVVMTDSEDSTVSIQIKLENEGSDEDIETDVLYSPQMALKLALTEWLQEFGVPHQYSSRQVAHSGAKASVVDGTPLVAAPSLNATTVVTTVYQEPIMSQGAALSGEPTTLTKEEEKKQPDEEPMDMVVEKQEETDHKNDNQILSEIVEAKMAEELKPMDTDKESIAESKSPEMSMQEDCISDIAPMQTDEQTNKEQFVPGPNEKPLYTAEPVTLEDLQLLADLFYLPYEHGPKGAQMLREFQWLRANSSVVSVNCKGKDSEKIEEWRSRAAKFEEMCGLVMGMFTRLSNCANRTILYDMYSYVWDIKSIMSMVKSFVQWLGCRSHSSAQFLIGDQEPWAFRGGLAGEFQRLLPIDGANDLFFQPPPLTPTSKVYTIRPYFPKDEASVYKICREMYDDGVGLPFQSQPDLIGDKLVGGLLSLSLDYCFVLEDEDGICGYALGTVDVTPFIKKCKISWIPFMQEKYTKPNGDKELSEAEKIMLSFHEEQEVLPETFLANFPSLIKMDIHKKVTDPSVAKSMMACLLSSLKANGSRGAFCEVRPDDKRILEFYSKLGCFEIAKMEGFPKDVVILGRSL
Nature of the assay: OGA Enzyme Inhibition Biochemical Assay. Particulars: 1 nM OGA, 100 μM 4-MUGlcNAc (Km), pH 6.4, 90 minutes at room temperature, 10-point dose-response from 20 μM. On the procedure: OGA Enzyme Inhibition Biochemical Assay
Recombinant full length human OGA enzyme was purchased from Origene. 4-MUGlCNAc substrate was purchased from Sigma. All other reagents were purchased from Sigma or Fisher. Assay buffer consists of the McIlvaine buffer system, pH 6.4 (0.2M Na2HPO4 mixed with 0.1M citric acid) and 0.01% BSA. Reactions consist of 1 nM OGA, 100 μM 4-MUGlcNAc (Km), and compound in a final volume of 10 μl. Reactions were incubated for 90 minutes at room temperature and quenched with 40 μl of 3M glycine, pH 10 and read on a Perkin Elmer Envision plate reader (Ex: 355 nm/Em: 460 nm). Compounds were tested with a 10-point dose-response starting from 20 μM with a 4-fold dilution. Data was fit using GraphPad Prism using a 4-parameter fit with variable slope.
Turning to `CC(=O)Nc1ncc(CN2C[C@@H](Cc3ncc(F)cn3)[C@H](C)C2)s1` (relative stereo) [Example 2-22, N-(5-(((trans)-3-((5-fluoropyrimidin-2-yl)methyl)-4-methylpyrrolidin-1-yl)methyl)thiazol-2-yl)acetamide], the IC50 came out at 36 nM. For `CC(=O)Nc1ncc(CN2CC[C@H](Cc3ncc(F)cn3)C2)s1` (single isomer, unassigned) [Example 2-1], the IC50 was found to be 7 nM. `CC(=O)Nc1ncc(CN2CC[C@@H](Cc3ncc(F)cn3)C2)s1` (single isomer, unassigned) [Example 2-2]: the IC50 was 114 nM. In the case of `CC(=O)Nc1ncc([C@@H](C)N2CCC[C@H](Cc3ncc(F)cn3)C2)s1` (single isomer, unassigned) [Example 2-10] it was 29 nM. The result for `CC(=O)Nc1ncc([C@H](C)N2CCC[C@H](Cc3ncc(F)cn3)C2)s1` (single isomer, unassigned) [Example 2-11] reads 1 nM. Regarding `CC(=O)Nc1ncc(CN2C[C@H](Cc3ncc(F)cn3)C[C@@H]2C)s1` (single isomer, unassigned) [Example 2-18], the IC50 worked out at 358 nM. `CC(=O)Nc1ncc(CN2C[C@@H](Cc3ncc(F)cn3)C[C@H]2C)s1` (single isomer, unassigned) [Example 2-19]: the IC50 is 1 nM. Take `CC(=O)Nc1ncc(CN2C[C@H](Cc3ncc(F)cn3)C[C@H]2C)s1` (single isomer, unassigned) [Example 2-20]: the IC50 came out at 1 nM. Regarding `CC(=O)Nc1ncc(CN2C[C@@H](Cc3ncc(F)cn3)C[C@@H]2C)s1` (single isomer, unassigned) [Example 2-21], the IC50 was determined as 108 nM. In the case of `CC(=O)Nc1ncc(CN2C[C@@H](Cc3ncc(F)cn3)CC[C@H]2C)s1` (single isomer, unassigned) [Example 2-24], the IC50 was found to be 1100 nM. Consider `CC(=O)Nc1ncc(CN2C[C@H](Cc3ncc(F)cn3)CC[C@@H]2C)s1` (single isomer, unassigned) [Example 2-25], for which the IC50 was found to be 5 nM. Take `CC(=O)Nc1ncc(CN2C[C@@H](Cc3ncc(F)cn3)CC[C@@H]2C)s1` (single isomer, unassigned) [Example 2-26]: the concentration for half-maximal inhibition (IC50) worked out at 990 nM. `CC(=O)Nc1ncc(CN2C[C@H](Cc3ncc(F)cn3)CC[C@H]2C)s1` (single isomer, unassigned) [Example 2-27]: the IC50 is less than 1 nM. As for `CC(=O)Nc1ncc(CN2CCC[C@@H]([C@@H](C)c3ncc(F)cn3)C2)s1` (single isomer, unassigned) [Example 2-29], the IC50 was determined as 1 nM. The result for `CC(=O)Nc1ncc(CN2CCC[C@@H]([C@H](C)c3ncc(F)cn3)C2)s1` (single isomer, unassigned) [Example 2-30] reads 32 nM; that for `CC(=O)Nc1ncc(CN2CCC[C@H]([C@@H](C)c3ncc(F)cn3)C2)s1` (single isomer, unassigned) [Example 2-31], 4 nM. For `CC(=O)Nc1ncc(CN2CCC[C@H]([C@H](C)c3ncc(F)cn3)C2)s1` (single isomer, unassigned) [Example 2-32], the IC50 was 330 nM. In the case of `CC(=O)Nc1ncc(CN2CC[C@H](C)[C@@H](Cc3ncc(F)cn3)C2)s1` (single isomer, unassigned) [Example 2-37], the IC50 amounted to 2 nM.

With `CC(=O)Nc1ncc(CN2CC[C@H](C)[C@@H](Cc3ncc(F)cn3)C2)s1` (single isomer, unassigned) [Example 2-38], the IC50 is 27 nM.

As for `CC(=O)Nc1ncc(CN2CC[C@H](C)[C@H](Cc3ncc(F)cn3)C2)s1` (single isomer, unassigned) [Example 2-39], the IC50 stood at 1 nM. As for `CC(=O)Nc1ncc(CN2CC[C@@H](C)[C@@H](Cc3ncc(F)cn3)C2)s1` (single isomer, unassigned) [Example 2-40], the IC50 amounted to 27 nM. `CC(=O)Nc1ncc(CN2C[C@H](Cc3ncc(F)cn3)C[C@@H]2C(F)(F)F)s1` (single isomer, unassigned) [Example 2-44]: the IC50 is greater than 20000 nM.
